In one assay the test system is Mouse ES cells. Kind of assay: Mitotic arrest of mouse ES cells. It is filed as cell-based. As to conditions: nocodazole 400 nM, about 12 hours. The procedure:
FIG. 9: Induction of mitotic spindle matrix assembly by RanGTP and AurA-beads in mouse ES cells. Mouse ES cells were arrested in mitosis using nocodazole. 70-90% mitotic arrest can be achieved after about 12 hours of nocodazole (400 nM) treatment. The ES cells were washed in PBS and the cell pellet was snap frozen in liquid nitrogen. To make the cell lysate, an energy mix, which contains 0.5 mg/ml delta 90 cyclin B, 10 mM ATP, 100 mM creatine phosphate, 0.5 mg/ml creatine kinase, that equals to 5% of the volume of the ES cell pellet was used to resuspend the ES cell pellet. A ˜2-second sonication was used to disrupt the cell followed by centrifugation to make clarified and concentrated ES cell lysates. RanGTP and AurA-beads were added to the lysate to induce the assembly of mitotic spindle matrix. Shown are matrices that were double labeled with tubulin and lamin B, Sox2, or nanog. AurA-beads (2.8 μm) embedded in the matrices serve as reference for the scale.

In a further assay the test system is LB3-matrix. As to the kind of experiment: LB3-matrix assembly in egg extracts (AurA-beads plus RanGTP or sperm chromatin). The format is biochemical, Xenopus. On the procedure:
Two methods were used to assay for LB3-matrix assembled in egg extracts. In the first method, spindle assembly was induced with either sperm or AurA-beads plus RanGTP. After incubation, 10 μl of egg extract was diluted into 1 ml XB buffer containing nocodazole (10 μM final concentration) and incubated at room temperature for 10 to 15 minutes to depolymerize MTs. In the second method, egg extracts were incubated with either sperm or AurA-beads plus RanGTP in the presence of 10 μM nocodazole at room temperature for the same time as for spindle assembly reactions. After incubated the egg extracts were diluted into 1 ml BRB80 buffer containing 30% glycerol. LB3-matrix assembled in both methods was spun onto coverslips through 3 ml BRB80 buffer containing 40% glycerol in the same manner as MT spin-down. The LB3-matrix were fixed with methanol (−20° C.) and stained with either polyclonal or monoclonal antibodies to LB3.
To detect the membrane in the lamin B matrix, spindles and LB3-matrices were assembled and spun onto coverslips as described above. The coverslips were incubated in BRB80 containing 20% sucrose and 1 μM Vybrant CM-Dil (Molecular Probes, V22888) for 5 minutes at room temperature and then washed briefly in BRB80 containing 20% sucrose. […]

For another assay, the system named is mitotic spindle. As to the kind of experiment: Spindle assembly in Xenopus egg extract. The format is biochemical. As to conditions: sperm or RanGTP plus AurA-beads; LB3T, LB3T-nls 10 μM; ΔNLB3, wild-type LB3 2 μM. On the procedure:
CSF-arrested Xenopus egg extracts, Xenopus sperm, and AurA-beads were prepared as described. […] Spindle assembly reactions were incubated at room temperature for 60 to 90 minutes with sperm or for 10 to 30 minutes with AurA-beads and RanGTP. To immunodeplete LB3, monoclonal antibody or polyclonal antibody to LB3 was coupled to protein A magnetic or agarose beads. IgG from non-immunized rabbits (Jackson Laboratory) was used for mock-depletion. To inhibit LB3 assembly with dominant negative LB3 mutants, LB3T and LB3T-nls were added at 10 μM final concentration, ΔNLB3 and wild-type LB3 were added at 2 μM final concentration to the egg extracts and incubated for 20 minutes before spindle assembly assays.

With `COC(=O)Nc1nc2ccc(C(=O)c3cccs3)cc2[nH]1` [nocodazole], the mitotic arrest in the assay with Mouse ES cells is 70-90%. Also, the “sperm around which LB3-matrix was still assembled” value with LB3-matrix (MT assembly inhibited by nocodazole) is “more than half”.

For the molecule triton X100, the “lamin B matrix integrity” value in the assay on LB3-matrix (0.1% in XB containing nocodazole, 10 min at room temperature) is “completely disrupted”.

B1: wild-type LB3: lamin B3, the major form of lamin B in Xenopus eggs, 6His fusion protein (protein)
chain: MATSTPSRAREHASAAQSPGSPTRISRMQEKEDLRHLNDRLAAYIERVRSLEADKSLLKIQLEEREEVSSREVTNLRQLYETELADARKLLDQTANERARLQVELGKVREEYRQLQARNSKKENDLSLAQNQLRDLESKLNTKEAELATALSGKRGLEEQLQEQRAQIAGLESSLRDTTKQLHDEMLWRVDLENKMQTIREQLDFQKNIHTQEVKEIKKRHDTRIVEIDSGRRVEFESKLAEALQELRRDHEQQILEYKEHLEKNFSAKLENAQLAAAKNSDYASATREEIMATKLRVDTLSSQLNHYQKQNSALEAKVRDLQDMLDRAHDMHRRQMTEKDREVTEIRQTLQGQLEEYEQLLDVKLALDMEINAYRKMLEGEEQRLKLSPSPSQRSTVSRASTSQTSRLLRGKKRKLDETGRSVTKRSYKVVQQASSTGPVSVEDIDPEGNYVRLLNNTEEDFSLHGWVVKRMHMSLPEIAFKLPCRFILKSSQRVTIWAAGAGAVHSPPTDLVWKSQKTWGTGDNIKITLLDSTGEECAERTLYRVIGEEGETDEDFVEEEELERQFRSQSHQSVDPSC
With B1, in the assay with mitotic spindle, the spindle assembly result is reported as “neither buffer control nor wild-type LB3 affected”.

Source of the values: patent US7510850B2, “Isolation of the mitotic spindle matrix and its methods of use” (Carnegie Institution of Washington, priority 2005, dated 2009).
